Earlier results as cited in patent US20110144198A1, “BREAST CANCER PROGNOSTICS” (ATLAS ANTIBODIES AB, priority 2008, published 2011).

Key:
[1] = tested on: ERα positive (ERα+) patients
ERα+/PR− tumors = conditions: follow-up period of 6 years

SMILES | fraction of ERα+ patients that do not respond to treatment [1] | recurrence rate compared to patients treated with tamoxifen (ERα+/PR− tumors)
CC/C(=C(\c1ccccc1)c1ccc(OCCN(C)C)cc1)c1ccccc1 [tamoxifen] | 30-40% | 
CC(C)(C#N)c1cc(Cn2cncn2)cc(C(C)(C)C#N)c1 [anastrozole] |  | halved
